The assay deals with Mycobacterium tuberculosis. In words: Antitubercular activity against Mycobacterium tuberculosis H37Rv ATCC 27294. The class given is functional. On the set-up: concentration or dose not given beside the values; unit not given here.
`CC1=C(C(=O)Nc2ccccc2Cl)C(c2ccccc2O)C(C(=O)Nc2ccccc2Cl)=C(C)N1`: the Inhibition is reported as -1.1949.

In turn, `CC1=C(C(=O)Nc2cc(C)ccc2C)C(c2ccccc2O)C(C(=O)Nc2cc(C)ccc2C)=C(C)N1` gave an Inhibition of -0.432.

`CC1=C(C(=O)Nc2ccccc2Cl)C(c2ccccc2S)C(C(=O)Nc2ccccc2Cl)=C(C)N1` registered an Inhibition of -0.954.

Consider `CC1=C(C(=O)Nc2ccccc2Cl)C(c2ccc(Cl)cc2Cl)C(C(=O)Nc2ccccc2Cl)=C(C)N1`, for which the Inhibition is -0.9079.

Molecule `CSc1ccc(C2C(C(=O)Nc3ccccc3)=C(C)NC(C)=C2C(=O)Nc2ccccc2)cc1` came in with an Inhibition of 0.3474.

As for `CC1=C(C(=O)Nc2ccccc2Cl)C(c2ccc(Cl)cc2)C(C(=O)Nc2ccccc2Cl)=C(C)N1`, the Inhibition was -0.6886.

In the case of `COc1ccc(C2C(C(=O)Nc3ccccc3Cl)=C(C)NC(C)=C2C(=O)Nc2ccccc2Cl)cc1`, the Inhibition is on record as -0.3679.

In turn, `COc1ccccc1NC(=O)C1=C(C)NC(C)=C(C(=O)Nc2ccccc2OC)C1c1ccc(Cl)cc1Cl` yielded an Inhibition of 1.0047.

The molecule `CSc1ccc(C2C(C(=O)Nc3ccccc3Cl)=C(C)NC(C)=C2C(=O)Nc2ccccc2Cl)cc1` came in with an Inhibition of 0.55.

In the case of `CC1=C(C(=O)Nc2ccc([N+](=O)[O-])cc2)C(c2ccc(Cl)cc2Cl)C(C(=O)Nc2ccc([N+](=O)[O-])cc2)=C(C)N1`, the Inhibition came to 1.3802.

`CSc1ccc(C2C(C(=O)Nc3ccc([N+](=O)[O-])cc3)=C(C)NC(C)=C2C(=O)Nc2ccc([N+](=O)[O-])cc2)cc1` showed an Inhibition of 1.5096.

`CC1=C(C(=O)Nc2ccccc2Cl)C(c2ccccc2Cl)C(C(=O)Nc2ccccc2Cl)=C(C)N1` displayed an Inhibition of -0.6585.

With `CC1=C(C(=O)Nc2ccc(C)cc2C)C(c2cccc([N+](=O)[O-])c2)C(C(=O)Nc2ccc(C)cc2C)=C(C)N1`, the Inhibition was 0.0521.

As for `CC1=C(C(=O)Nc2ccc(Cl)cc2)C(c2cccc([N+](=O)[O-])c2)C(C(=O)Nc2ccc(Cl)cc2)=C(C)N1`, the Inhibition is -0.3888.

`CC1=C(C(=O)Nc2ccc([N+](=O)[O-])cc2)C(c2ccc(Cl)cc2)C(C(=O)Nc2ccc([N+](=O)[O-])cc2)=C(C)N1` displayed an Inhibition of 0.2126.

As to `CC1=C(C(=O)Nc2cccc([N+](=O)[O-])c2)C(c2ccc(Cl)cc2Cl)C(C(=O)Nc2cccc([N+](=O)[O-])c2)=C(C)N1`, the Inhibition was 1.6901.

In turn, `CC1=C(C(=O)Nc2ccc(C)cc2C)C(c2ccccc2)C(C(=O)Nc2ccc(C)cc2C)=C(C)N1` showed an Inhibition of -0.865.

Take `COc1ccc(C2C(C(=O)Nc3ccc(Cl)cc3)=C(C)NC(C)=C2C(=O)Nc2ccc(Cl)cc2)c(O)c1`: the Inhibition is recorded as 0.63.

`COc1ccccc1NC(=O)C1=C(C)NC(C)=C(C(=O)Nc2ccccc2OC)C1c1ccc(N(C)C)cc1` showed an Inhibition of 1.1233.

The molecule `COc1cc(C2C(C(=O)Nc3ccc(Cl)cc3)=C(C)NC(C)=C2C(=O)Nc2ccc(Cl)cc2)cc(OC)c1OC` displayed an Inhibition of 1.1949.

Regarding `CC1=C(C(=O)Nc2cccc([N+](=O)[O-])c2)C(c2ccccc2)C(C(=O)Nc2cccc([N+](=O)[O-])c2)=C(C)N1`, the Inhibition came to 1.1949.

Molecule `COc1ccc(C2C(C(=O)Nc3cc(C)ccc3C)=C(C)NC(C)=C2C(=O)Nc2cc(C)ccc2C)cc1` yielded an Inhibition of -0.158.

Molecule `CC1=C(C(=O)Nc2cccc([N+](=O)[O-])c2)C(c2ccccc2O)C(C(=O)Nc2cccc([N+](=O)[O-])c2)=C(C)N1` came in with an Inhibition of 1.0606.

On to `CSc1ccc(C2C(C(=O)Nc3ccc(C)cc3C)=C(C)NC(C)=C2C(=O)Nc2ccc(C)cc2C)cc1`, for which the Inhibition turned out to be 0.158.

Regarding `CC1=C(C(=O)Nc2ccc(Cl)cc2)C(c2ccc(O)cc2)C(C(=O)Nc2ccc(Cl)cc2)=C(C)N1`, the Inhibition is listed as 0.575.

Regarding `CSc1ccc(C2C(C(=O)Nc3cccc([N+](=O)[O-])c3)=C(C)NC(C)=C2C(=O)Nc2cccc([N+](=O)[O-])c2)cc1`, the Inhibition was 1.6901.

`COc1ccccc1NC(=O)C1=C(C)NC(C)=C(C(=O)Nc2ccccc2OC)C1c1ccc(SC)cc1` came in with an Inhibition of 1.1233.

`CC1=C(C(=O)Nc2ccc([N+](=O)[O-])cc2)C(c2ccccc2Cl)C(C(=O)Nc2ccc([N+](=O)[O-])cc2)=C(C)N1` gave an Inhibition of 1.2787.

Molecule `COc1ccccc1NC(=O)C1=C(C)NC(C)=C(C(=O)Nc2ccccc2OC)C1c1cccc([N+](=O)[O-])c1` had an Inhibition of 0.2498.

`CC1=C(C(=O)Nc2cccc([N+](=O)[O-])c2)C(c2ccccc2Cl)C(C(=O)Nc2cccc([N+](=O)[O-])c2)=C(C)N1` gave an Inhibition of 1.5096.

Values taken from ChEMBL document CHEMBL1135978, “Three-dimensional quantitative structure-activity relationship of 1,4-dihydropyridines as antitubercular agents” (2002).
